Source: patent publication US7589089B2, “Inhibitors for GlyT-1” (Hoffmann-La Roche Inc., priority 2006, dated 2009)

molecular target: T1, mGlyT-1b (Mus musculus, UniProt P28571); assay: Glycine Uptake Inhibition Assay (mGlyT-1b); format: cell-based
T1 construct: host or cells: Flp-in-CHO
T1 sequence (P28571 1-651 isoform P28571-2): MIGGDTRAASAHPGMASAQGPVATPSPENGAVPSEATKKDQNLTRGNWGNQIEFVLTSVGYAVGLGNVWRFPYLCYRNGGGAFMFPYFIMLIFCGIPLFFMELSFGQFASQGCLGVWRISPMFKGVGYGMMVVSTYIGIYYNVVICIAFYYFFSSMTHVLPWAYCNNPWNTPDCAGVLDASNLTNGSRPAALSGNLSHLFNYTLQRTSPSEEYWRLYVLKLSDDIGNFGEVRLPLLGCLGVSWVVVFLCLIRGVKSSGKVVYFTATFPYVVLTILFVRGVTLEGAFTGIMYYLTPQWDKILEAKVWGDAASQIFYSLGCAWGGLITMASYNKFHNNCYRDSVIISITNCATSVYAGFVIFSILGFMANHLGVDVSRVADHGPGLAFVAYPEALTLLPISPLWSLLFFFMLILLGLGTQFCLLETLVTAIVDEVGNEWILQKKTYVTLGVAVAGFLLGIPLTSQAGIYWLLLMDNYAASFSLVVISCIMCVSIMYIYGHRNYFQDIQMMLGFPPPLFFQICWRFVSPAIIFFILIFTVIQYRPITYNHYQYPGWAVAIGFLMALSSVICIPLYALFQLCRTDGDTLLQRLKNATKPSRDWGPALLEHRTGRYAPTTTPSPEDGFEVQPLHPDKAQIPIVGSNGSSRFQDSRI
Description: DMEM complete medium: Nutrient mixture F-12 (Gibco Life-technologies), fetal bovine serum (FBS) 5%, (Gibco life technologies), Penicillin/Streptomycin 1% (Gibco life technologies), Hygromycin 0.6 mg/ml (Gibco life technologies), Glutamine 1 mM Gibco life technologies)
Uptake buffer (UB): 150 mM NaCl, 10 mM Hepes-Tris, pH 7.4, 1 mM CaCl2, 2.5 mM KCl, 2.5 mM MgSO4, 10 mM (+) D-glucose.
Flp-in™-CHO (Invitrogen Cat n° R758-07) cells stably transfected with mGlyT1b cDNA.
Glycine Uptake Inhibition Assay (mGlyT-1b)
On day 1 mammalian cells, (Flp-in™-CHO), transfected with mGlyT-1b cDNA, were plated at the density of 40,000 cells/well in complete F-12 medium, without hygromycin in 96-well culture plates. On day 2, the medium was aspirated and the cells were washed twice with uptake buffer (UB). The cells were then incubated for 20 min at 22° C. with either (i) no potential competitor, (ii) 10 mM non-radioactive glycine, (iii) a concentration of a potential inhibitor. A range of concentrations of the potential inhibitor was used to generate data for calculating the concentration of inhibitor resulting in 50% of the effect (e.g. IC50, the concentration of the competitor inhibiting glycine uptake of 50%). A solution was then immediately added containing [^3H]-glycine 60 nM (11-16 Ci/mmol) and 25 μM non-radioactive glycine. The plates were incubated with gentle shaking and the reaction was stopped by aspiration of the mixture and washing (three times) with ice-cold UB. The cells were lysed with scintillation liquid, shaken 3 hours and the radioactivity in the cells was counted using a scintillation counter.

| SMILES | IC50 [µM] |
| --- | --- |
| COc1ccc(C(=O)N(CC(=O)Nc2cccc(Cl)c2)Cc2c(Cl)cccc2Cl)cc1 [Example 19, N-[(3-Chloro-phenylcarbamoyl)-methyl]-N-(2,6-dichloro-benzyl)-4-methoxy-benzamide] | 0.164 |
| COc1ccc(C(=O)N(CC(=O)Nc2cccc(Cl)c2)Cc2ccsc2)cc1 [Example 10, N-[(3-Chloro-phenylcarbamoyl)-methyl]-4-methoxy-N-thiophen-3-ylmethyl-benzamide] | 0.285 |
| O=C(CN(Cc1cc(F)cc(F)c1)C(=O)c1cc2ccccc2s1)Nc1cccc(F)c1 [Example 63, Benzo[b]thiophene-2-carboxylic acid (3,5-difluoro-benzyl)-[(3-fluoro-phenylcarbamoyl)-methyl]-amide] | 0.07 |
| O=C(CN(Cc1ccccc1Cl)C(=O)c1cc2ccccc2s1)Nc1cccc(C(F)(F)F)c1 [Example 51, Benzo[b]thiophene-2-carboxylic acid (2-chloro-benzyl)-[(3-trifluoromethyl-phenylcarbamoyl)-methyl]-amide] | 0.06 |
| O=C(CN(Cc1ccccc1)C(=O)c1ccc(F)cc1)Nc1cccc(Cl)c1 [Example 15, N-Benzyl-N-[(3-chloro-phenylcarbamoyl)-methyl]-4-fluoro-benzamide] | 0.312 |
| COc1ccc(C(=O)N(CC(=O)Nc2cccc(Cl)c2)c2ccccc2)cc1 [Example 28, N-[(3-Chloro-phenylcarbamoyl)-methyl]-4-methoxy-N-phenyl-benzamide] | 0.267 |
| O=C(CN(Cc1ccc(F)cc1F)C(=O)c1ccc(Cl)cc1)Nc1cccc(Cl)c1 [Example 5, 4-Chloro-N-[(3-chloro-phenylcarbamoyl)-methyl]-N-(2,4-difluoro-benzyl)-benzamide] | 0.16 |
| O=C(CN(Cc1ccccc1Cl)C(=O)c1cc2ccccc2s1)Nc1cccc(F)c1 [Example 57, Benzo[b]thiophene-2-carboxylic acid (2-chloro-benzyl)-[(3-fluoro-phenylcarbamoyl)-methyl]-amide] | 0.088 |
| O=C(CN(Cc1ccccc1Cl)C(=O)c1ccc(OC(F)(F)F)cc1)Nc1cccc(F)c1 [Example 60, N-(2-Chloro-benzyl)-N-[(3-fluoro-phenylcarbamoyl)-methyl]-4-trifluoromethoxy-benzamide] | 0.107 |
| O=C(CN(Cc1c(F)cccc1F)C(=O)c1ccc(OC(F)(F)F)cc1)Nc1ccc(F)c(Cl)c1 [Example 71, N-[(3-Chloro-4-fluoro-phenylcarbamoyl)-methyl]-N-(2,6-difluoro-benzyl)-4-trifluoromethoxy-benzamide] | 0.107 |
| N#Cc1ccc(C(=O)N(CC(=O)Nc2cccc(C(F)(F)F)c2)Cc2ccccc2Cl)cc1 [Example 43, N-(2-Chloro-benzyl)-4-cyano-N-[(3-trifluoromethyl-phenylcarbamoyl)-methyl]-benzamide] | 0.339 |
| O=C(CN(Cc1ccccc1Cl)C(=O)c1ccc(OC(F)(F)F)cc1)Nc1cccc(C(F)(F)F)c1 [Example 54, #N!-(2-Chloro-benzyl)-4-trifluoromethoxy-#N!-[(3-trifluoromethyl-phenylcarbamoyl)-methyl]-benzamide] | 0.196 |
| O=C(CN(Cc1c(F)cccc1F)C(=O)c1ccc(Cl)cc1)Nc1cccc(Cl)c1 [Example 1, 4-Chloro-N-[(3-chloro-phenylcarbamoyl)-methyl]-N-(2,6-difluoro-benzyl)-benzamide] | 0.052 |
| O=C(CN(Cc1cccs1)C(=O)c1ccc(Cl)cc1)Nc1cccc(Cl)c1 [Example 17, 4-Chloro-N-[(3-chloro-phenylcarbamoyl)-methyl]-N-thiophen-2-ylmethyl-benzamide] | 0.077 |
| COc1ccc(C(=O)N(CC(=O)Nc2ccc(Cl)c(Cl)c2)c2ccccc2)cc1 [Example 41, N-[(3,4-Dichloro-phenylcarbamoyl)-methyl]-4-methoxy-N-phenyl-benzamide] | 0.276 |
| O=C(CN(Cc1ccccc1Cl)C(=O)c1ccc(Cl)cc1)Nc1cccc(C(F)(F)F)c1 [Example 53, 4-Chloro-N-(2-chloro-benzyl)-N-[(3-trifluoromethyl-phenylcarbamoyl)-methyl]-benzamide] | 0.241 |
| COc1ccc(C(=O)N(CC(=O)Nc2ccc(Cl)c(Cl)c2)c2ccccc2F)cc1 [Example 21, N-[(3,4-Dichloro-phenylcarbamoyl)-methyl]-N-(2-fluoro-phenyl)-4-methoxy-benzamide] | 0.315 |

Results, then the molecule that gave them:

| IC50 [µM] | SMILES |
| --- | --- |
| 0.191 | CN(C)c1ccc(C(=O)N(CC(=O)Nc2ccc(Cl)c(Cl)c2)c2ccccc2)cc1 [Example 116, N-[(3,4-Dichloro-phenylcarbamoyl)-methyl]-4-dimethylamino-N-phenyl-benzamide] |
| 0.142 | O=C(CN(Cc1ccccc1Cl)C(=O)c1ccc(Cl)cc1)Nc1ccc(F)c(Cl)c1 [Example 74, 4-Chloro-N-(2-chloro-benzyl)-N-[(3-chloro-4-fluoro-phenylcarbamoyl)-methyl]-benzamide] |
| 0.205 | O=C(CN(Cc1ccccc1Cl)C(=O)c1cc2ccccc2s1)Nc1ccc(F)c(Cl)c1 [Example 72, Benzo[b]thiophene-2-carboxylic acid (2-chloro-benzyl)-[(3-chloro-4-fluoro-phenylcarbamoyl)-methyl]-amide] |
| 0.259 | O=C(CN(C(=O)COc1ccc(Cl)cc1)c1ccccc1)Nc1ccc(Cl)c(Cl)c1 [Example 118, 2-(4-Chloro-phenoxy)-N-[(3,4-dichloro-phenylcarbamoyl)-methyl]-N-phenyl-acetamide] |
| 0.021 | O=C(CN(Cc1cccc(Cl)c1)C(=O)c1ccc(Cl)cc1)Nc1cccc(Cl)c1 [Example 105, 4-Chloro-N-(3-chloro-benzyl)-N-[(3-chloro-phenylcarbamoyl)-methyl]-benzamide] |
| 0.288 | O=C(CN(Cc1cc(F)cc(F)c1)C(=O)c1ccc(OC(F)(F)F)cc1)Nc1ccc(F)c(Cl)c1 [Example 90, N-[(3-Chloro-4-fluoro-phenylcarbamoyl)-methyl]-N-(3,5-difluoro-benzyl)-4-trifluoromethoxy-benzamide] |
| 0.178 | O=C(CN(Cc1cccc(F)c1F)C(=O)c1ccc(F)cc1)Nc1ccc(F)c(Cl)c1 [Example 84, N-[(3-Chloro-4-fluoro-phenylcarbamoyl)-methyl]-N-(2,3-difluoro-benzyl)-4-fluoro-benzamide] |
| 0.108 | O=C(CN(Cc1cccc(F)c1F)C(=O)c1ccc(Cl)cc1)Nc1ccc(F)c(Cl)c1 [Example 82, 4-Chloro-N-[(3-chloro-4-fluoro-phenylcarbamoyl)-methyl]-N-(2,3-difluoro-benzyl)-benzamide] |
| 0.025 | O=C(CN(Cc1ccccc1Cl)C(=O)c1ccc(Cl)cc1)Nc1cccc(Cl)c1 [Example 106, 4-Chloro-N-(2-chloro-benzyl)-N-[(3-chloro-phenylcarbamoyl)-methyl]-benzamide] |
| 0.21 | COc1ccc(C(=O)N(CC(=O)Nc2ccc(Cl)c(Cl)c2)c2cccc(Cl)c2)cc1 [Example 117, N-(3-Chloro-phenyl)-N-[(3,4-dichloro-phenylcarbamoyl)-methyl]-4-methoxy-benzamide] |
| 0.355 | O=C(CN(Cc1ccccc1F)C(=O)c1ccc(N2CCOCC2)nc1)Nc1cccc(Cl)c1 [Example 119, N-[(3-Chloro-phenylcarbamoyl)-methyl]-N-(2-fluoro-benzyl)-6-morpholin-4-yl-nicotinamide] |
| 0.282 | O=C(CN(Cc1c(F)cccc1F)C(=O)c1ccc(F)cc1)Nc1ccc(F)c(Cl)c1 [Example 78, N-[(3-Chloro-4-fluoro-phenylcarbamoyl)-methyl]-N-(2,6-difluoro-benzyl)-4-fluoro-benzamide] |
